Assay results taken from patent US9597342B2 (UWM Research Foundation, Inc., priority 2011, dated 2017).
Marks after values point to notes of the source that are not given here.

Key:
[1] = In vitro metabolic stability using human liver microsomes; conditions: for % remaining: at both 1 and 10 μM
Procedure: The metabolic stability of 15 GABAA receptor ligands using human liver microsomes was studied. The test articles were incubated at two concentrations (1 and 10 μM) and aliquots (100 μl) were removed at various time points (0, 15, 30 and 60 minutes), and analyzed by LC-MS/MS.
(§1) The test articles were incubated at two concentrations (1 and 10 μM) in 96-well plate format with active or heat-inactivated human liver microsomes and cofactors. Aliquots were removed at 0, 15, 30 and 60 minutes and mixed with acetonitrile containing internal standard for analysis. Samples were extracted and assayed using a liquid chromatography/tandem mass spectrometry (LC-MS/MS) analytical method.
Pooled human liver microsomes (Lot #38289, pool of 150 different male and female donor livers) were obtained from BD Biosciences Corporation (Woburn, Mass.). Microsomes were stored at ˜−135° C. until use.
(§2) The test articles (1 and 10 μM) were incubated with human liver microsomes (0.5 mg protein/ml) and appropriate cofactors (2.5 mM NADPH and 3.3 mM magnesium chloride) in 100 mM phosphate buffer, pH 7.4 (0.1% final DMSO), in a 37° C. water bath. Incubations with all compounds were initiated with the addition of microsomes. At selected time points (0, 15, 30 and 60 min), a single 100 μl aliquot was removed from each sample and mixed with 200 μl of chilled acetonitrile containing internal standard. Following brief vortexing and centrifugation, the samples were further diluted into a 96-well plate for subsequent LC-MS/MS analysis. All samples were assayed in duplicate.
(§3) Experimental controls consisted of: a) incubation of all components except test article for 0 and 60 min, b) incubation of midazolam (positive control) at 10 μM for 0, 15, 30 and 60 min, and c) incubation of 1 and 10 μM test article and 10 μM midazolam with heat-inactivated microsomes (0.5 mg protein/ml) for 0 and 60 min. All controls were assayed in duplicate.
Samples were analyzed by LC-MS/MS in multiple reaction monitoring mode using positive-ion electrospray ionization. The details of the LC-MS/MS method can be provided upon request.
(§4) Data from the metabolic stability assays were transferred to and processed in a Microsoft Excel spreadsheet. To determine metabolic stability, the percent remaining at each time point was calculated by dividing the peak area ratio of test article/internal standard at each time point by the peak area ratio at 0 min multiplied by 100.

[2] = Incubation with heat-inactivated human liver microsomes (stability control); conditions: 60 min
Procedure: as §1, §2, §3, §4

SMILES	Mean % Remaining vs T = 0 min, Human Liver Microsomes ([1]; 1 μM, 15 min)	Mean % Remaining vs T = 0 min, Human Liver Microsomes ([1]; 1 μM, 30 min)	Mean % Remaining vs T = 0 min, Human Liver Microsomes ([1]; 1 μM, 60 min)	Mean % Remaining vs T = 0 min, Human Liver Microsomes ([1]; 10 μM, 15 min)	Mean % Remaining vs T = 0 min, Human Liver Microsomes ([1]; 10 μM, 30 min)	Mean % Remaining vs T = 0 min, Human Liver Microsomes ([1]; 10 μM, 60 min)	Mean % Remaining vs T = 0 min, with HI (Heat Inactivated) Microsomes ([2]; 1 μM)	Mean % Remaining vs T = 0 min, with HI (Heat Inactivated) Microsomes ([2]; 10 μM)	melting point	also measured
C#Cc1ccc2c(c1)C(c1ccccc1)=NCc1c(C(=O)O)ncn1-2 [XHe-II-053 Acid]	108%	106%	111%	95.6%	95.0%	95.0%	106%	97.4%	–	–
C#Cc1ccc2c(c1)C(c1ccccn1)=NCc1c(C(=O)SC)ncn1-2 [ZJW-II-065, S-Methyl-8-Ethynyl-Methyl-6-(Pyridine-2-yl)-4H-Benzo-[f]-Imidazo-[1,5-a]-[1,4]-Diazepine-3-Carbothioate]	98.4%	97.0%	82.5%	111%	106%	95.6%	105%	110%	–	–
C#Cc1ccc2c(c1)C(c1ccccc1)=NCc1c(C(=O)OCCCOC(=O)c3ncn4c3CN(C)C(=O)c3cc(Cl)ccc3-4)ncn1-2	87.3%	39.4%	–	107%	104%	82.8%	141%	114%	179 to 184 °C	–
CN1Cc2c(C(=O)OCCCCCOC(=O)c3ncn4c3CN(C)C(=O)c3cc(Cl)ccc3-4)ncn2-c2ccc(Cl)cc2C1=O	–	–	–	–	–	–	–	–	146 to 152 °C	–
C#Cc1ccc2c(c1)C(c1ccccc1)=NCc1c(C(=O)NC)ncn1-2	–	–	–	–	–	–	–	–	237 to 238 °C	–
C#Cc1ccc2c(c1)C(c1ccccc1F)=N[C@@H](C)c1c(C(=O)N3CCN(C(=O)c4ncn5c4[C@H](C)N=C(c4ccccc4F)c4cc(C#C)ccc4-5)CC3)ncn1-2	–	–	–	–	–	–	–	–	180 to 190 °C	–
C#Cc1ccc2c(c1)C(c1ccccc1F)=N[C@@H](C)c1c(C(=O)OCC)ncn1-2 [SH-053-2′F-SCH3]	6.18%	0.85%	3.85^d %	11.7%	1.72%	0.20%	110%	114%	–	% remaining ([1]; 15 min): less than 12%
O=C(OCCCCOC(=O)c1ncn2c1[C@@H]1CCCN1C(=O)c1cc(Br)ccc1-2)c1ncn2c1C1CCCN1C(=O)c1cc(Br)ccc1-2 (stereo partly shown)	–	–	–	–	–	–	–	–	166 to 171 °C	–
C#Cc1ccc2c(c1)C(c1ccccc1)=NCc1c(C(=O)OCC)ncn1-2 [XHe-II-053]	41.4%	11.1%	1.46%	47.6%	13.9%	1.74%	107%	102%	–	–
C#Cc1ccc2c(c1)C(c1ccccc1)=NCc1c(C(=O)OCCCCCOC(=O)c3ncn4c3CN=C(c3ccccc3F)c3cc(C#C)ccc3-4)ncn1-2	–	–	–	–	–	–	–	–	145 to 150 °C	–
C#Cc1ccc2c(c1)C(=O)N1CCCC1c1c(C(=O)N3CCN(C(=O)c4ncn5c4[C@@H]4CCCN4C(=O)c4cc(C#C)ccc4-5)CC3)ncn1-2 (stereo partly shown)	–	–	–	–	–	–	–	–	206 to 211 °C	–
C#Cc1ccc2c(c1)C(c1ccccc1F)=NCc1c(C(=O)OCCCCCOC(=O)c3ncn4c3CN(C)C(=O)c3cc(Cl)ccc3-4)ncn1-2	–	–	–	–	–	–	–	–	125 to 130 °C	–
Cc1ncc2n1-c1ccc(Cl)cc1C(c1ccccc1F)=NC2 [Midazolam]	–	–	–	–	–	–	–	–	–	Mean % Remaining vs T = 0 min, Human Liver Microsomes ([1]; 10 μM, 15 min, positive control, data from three experiments): 36.9 ± 13.5%; Mean % Remaining vs T = 0 min, Human Liver Microsomes ([1]; 10 μM, 30 min, positive control, data from three experiments): 18.7 ± 7.3%; Mean % Remaining vs T = 0 min, Human Liver Microsomes ([1]; 10 μM, 60 min, positive control, data from three experiments): 4.2 ± 2.2%; metabolism observed (in words) ([1]; active human liver microsomes, up to 60 min): consistently metabolized; Mean % Remaining vs T = 0 min, with HI (Heat Inactivated) Microsomes ([2]; 10 μM, positive control, data from three experiments): 104 ± 1.2%
CN1Cc2c(C(=O)N3CCN(C(=O)c4ncn5c4CN(C)C(=O)c4cc(Cl)ccc4-5)CC3)ncn2-c2ccc(Cl)cc2C1=O	–	–	–	–	–	–	–	–	367 to 374 °C	–
CN1Cc2c(C(=O)OCCCCOC(=O)c3ncn4c3CN(C)C(=O)c3cc(Cl)ccc3-4)ncn2-c2ccc(Cl)cc2C1=O	–	–	–	–	–	–	–	–	308 to 312 °C	–
O=C(OCCCCCOC(=O)c1ncn2c1[C@@H]1CCCN1C(=O)c1cc(Br)ccc1-2)c1ncn2c1C1CCCN1C(=O)c1cc(Br)ccc1-2 (stereo partly shown)	–	–	–	–	–	–	–	–	157 to 161 °C	–
C#Cc1ccc2c(c1)C(c1ccccn1)=NCc1c(C(=O)OCC)ncn1-2 [HZ-166]	106%	98.4%	80.4%	104%	90.7%	76.3%	94.1%	95.4%	–	–
C#Cc1ccc2c(c1)C(c1ccccc1F)=NCc1c(C(=O)OCC)ncn1-2 [JY-XHe-053]	13.5%	2.13%	0.27%	20.0%	3.60%	0.56%	102%	111%	–	% remaining ([1]; 15 min): less than 20%
C#Cc1ccc2c(c1)C(c1ccccn1)=NCc1c(-c3nc(C(C)C)no3)ncn1-2 [ZJW-II-040, 5-(8-Ethynyl-6-(pyridin-2-yl)-4H-Benzo-[f]-Imidazo-[1,5-a]-[1,4]-Diazepine-3-yl)-3-Isopropyl-1,2,4-Oxadiazole]	97.8%	98.7%	89.4%	106%	99.3%	95.1%	113%	92.0%	–	–
C#Cc1ccc2c(c1)C(c1ccccc1F)=N[C@@H](C)c1c(C(=O)OCCCCCOC(=O)c3ncn4c3CN(C)C(=O)c3cc(Cl)ccc3-4)ncn1-2	–	–	–	–	–	–	–	–	157 to 162 °C (dec.)	–
C#Cc1ccc2c(c1)C(c1ccccc1F)=N[C@@H](C)c1c(C(=O)OCCCCCOC(=O)c3ncn4c3[C@H](C)N=C(c3ccccc3F)c3cc(C#C)ccc3-4)ncn1-2	–	–	–	–	–	–	–	–	150 to 155 °C	–
C#Cc1ccc2c(c1)C(c1ccccc1F)=N[C@@H](C)c1c(C(=O)OCCCCOC(=O)c3ncn4c3[C@H](C)N=C(c3ccccc3F)c3cc(C#C)ccc3-4)ncn1-2	–	–	–	–	–	–	–	–	158 to 160 °C	–
C#Cc1ccc2c(c1)C(=O)N1CCCC1c1c(C(=O)OCCCOC(=O)c3ncn4c3CN(C)C(=O)c3cc(Cl)ccc3-4)ncn1-2 (stereo not shown)	–	–	–	–	–	–	–	–	174 to 176 °C	–
C#Cc1ccc2c(c1)C(c1ccccc1)=NCc1c(C(=O)OCCCCCOC(=O)c3ncn4c3CN(C)C(=O)c3cc(Cl)ccc3-4)ncn1-2	–	–	–	–	–	–	–	–	155 to 160 °C (dec.)	–
C#Cc1ccc2c(c1)C(c1ccccc1F)=N[C@H](C)c1c(C(=O)OCC)ncn1-2 [SH-053-2′F-RCH3]	86.7%	86.7%	86.9%	97.9%	105%	105%	115%	117%	–	–
